# Assay results taken from ChEMBL document CHEMBL4699468, “Structural hybridization as a facile approach to new drug candidates” (Bioorg Med Chem Lett, 2020).
# pEC50, pIC50: −log10 of the molar value.
# Legend:
# [1] = tested on: Escherichia coli; assay: Antibacterial activity against Escherichia coli; assay type: functional
# [2] = tested on: MDA-MB-231; assay: Growth inhibition of human MDA-MBA-231 cells incubated for 72 hrs by MTT assay; assay type: functional, cell-based; conditions: MDA-MB-231, 72 h
# [3] = tested on: HT-29; assay: Growth inhibition of human HT-29 cells incubated for 72 hrs by MTT assay; assay type: functional, cell-based; conditions: HT-29, 72 h
# [4] = tested on: A549; assay: Growth inhibition of human A549 cells incubated for 72 hrs by MTT assay; assay type: functional, cell-based; conditions: A549, 72 h
# [5] = tested on: Plasmodium falciparum; assay: Antiplasmodial activity against chloroquine-resistant Plasmodium falciparum K1 infected in human erythrocytes incubated for 72 hrs by SYBR green staining based fluorescence assay; assay type: functional, organism-based; conditions: K1, 72 h
# [6] = tested on: Plasmodium falciparum; assay: Antiplasmodial activity against chloroquine-resistant Plasmodium falciparum Dd2 infected in human erythrocytes incubated for 72 hrs by SYBR green staining based fluorescence assay; assay type: functional, organism-based; conditions: Dd2, 72 h
# [7] = tested on: Plasmodium falciparum; assay: Antiplasmodial activity against […] Plasmodium falciparum 3D7 infected in human erythrocytes incubated for 72 hrs by SYBR green staining based fluorescence assay; assay type: functional, organism-based; conditions: 3D7, 72 h
# [8] = tested on: Plasmodium falciparum; assay: Antiplasmodial activity against Plasmodium falciparum W2; assay type: functional, organism-based
# [9] = tested on: Pseudomonas aeruginosa; assay: Antibacterial activity against Pseudomonas aeruginosa ATCC 27853 incubated for 24 hrs by CLSI-based macrobroth dilution method; assay type: functional
# [10] = tested on: Human betaherpesvirus 5; assay: Antiviral activity against GFP-transfected Human cytomegalovirus AD169 infected in human HFF cells measured after 7 days by GFP fluorometry; assay type: functional, cell-based; conditions: Human betaherpesvirus 5, AD169, HFF, 168 h
# [11] = tested on: Staphylococcus aureus; assay: Antibacterial activity against Staphylococcus aureus; assay type: functional
# [12] = tested on: Pseudomonas aeruginosa; assay: Antibacterial activity against Pseudomonas aeruginosa ATCC 91433; assay type: functional
# [13] = tested on: Proteus mirabilis; assay: Antibacterial activity against Proteus mirabilis 431 incubated for 18 hrs by agar dilution method; assay type: functional
# [14] = tested on: Hafnia alvei; assay: Antibacterial activity against Enterobacter hafniae incubated for 18 hrs by agar dilution method; assay type: functional
# [15] = tested on: Citrobacter freundii; assay: Antibacterial activity against Citrobacter freundii incubated for 18 hrs by agar dilution method; assay type: functional
# [16] = tested on: Escherichia coli; assay: Antibacterial activity against Escherichia coli incubated for 18 hrs by agar dilution method; assay type: functional
# [17] = tested on: Morganella morganii; assay: Antibacterial activity against Proteus morganii incubated for 18 hrs by agar dilution method; assay type: functional
# [18] = tested on: Staphylococcus aureus; assay: Antibacterial activity against Staphylococcus aureus incubated for 18 hrs by agar dilution method; assay type: functional
# [19] = tested on: Enterobacter cloacae; assay: Antibacterial activity against Enterobacter cloacae incubated for 18 hrs by agar dilution method; assay type: functional
# [20] = tested on: Klebsiella aerogenes; assay: Antibacterial activity against Klebsiella aerogenes incubated for 18 hrs by agar dilution method; assay type: functional
# [21] = tested on: Providencia rettgeri; assay: Antibacterial activity against Proteus rettgeri incubated for 18 hrs by agar dilution method; assay type: functional
# [22] = tested on: Morganella morganii; assay: Antibacterial activity against Proteus morganii NCTC235 incubated for 18 hrs by agar dilution method; assay type: functional
# [23] = tested on: MCF7; assay: Cytotoxicity against human MCF7 by microculture tetrazolium assay; assay type: functional, cell-based
structure (smiles),measurement,setting,value
N[C@@H](CCl)C(=O)N[C@@H](CCl)C(=O)OCC1=C(C(=O)O)N2C(=O)[C@@H](NC(=O)Cc3cccs3)[C@H]2SC1,MIC,[1],7.05 µg/mL
C[C@H]1[C@@H](OCCNC(=Nc2cc(C(F)(F)F)ccc2Cl)NCCO[C@H]2O[C@@H]3O[C@]4(C)CC[C@H]5[C@H](C)CC[C@@H]([C@H]2C)[C@@]35OO4)O[C@@H]2O[C@]3(C)CC[C@H]4[C@H](C)CC[C@@H]1[C@@]24OO3,pEC50,[2],5.85
same,pEC50,[3],5.85
same,pEC50,[4],6.62
C[C@H]1[C@H](OC(=O)CCC(=O)NCCNc2ccnc3cc(Cl)ccc23)O[C@@H]2O[C@@]3(C)CC[C@H]4[C@H](C)CC[C@@H]1[C@@]24OO3,pEC50,[5],9.11
same,pEC50,[6],9.00
C[C@H]1[C@H](OC(=O)CCC(=O)OCCOC(=O)CC(=O)OCCOC(=O)CCC(=O)O[C@@H]2O[C@@H]3O[C@@]4(C)CC[C@H]5[C@H](C)CC[C@@H]([C@H]2C)[C@@]35OO4)O[C@@H]2O[C@@]3(C)CC[C@H]4[C@H](C)CC[C@@H]1[C@@]24OO3,pEC50,[7],8.85
CCN(CC)CCCC(C)Nc1ccnc2cc(Cl)ccc12 (stereo not given) [CHLOROQUINE],pEC50,[5],6.52
same,pEC50,[6],6.78
C[C@H]1[C@@H](OCc2cn(-c3ccnc4cc(Cl)ccc34)nn2)O[C@@H]2O[C@@]3(C)CC[C@H]4[C@H](C)CC[C@@H]1[C@@]24OO3,pEC50,[5],8.37
same,pEC50,[6],8.23
C[C@H]1[C@H](OC(=O)CCC(=O)OCc2cn(-c3ccnc4cc(Cl)ccc34)nn2)O[C@@H]2O[C@@]3(C)CC[C@H]4[C@H](C)CC[C@@H]1[C@@]24OO3,pEC50,[5],8.74
same,pEC50,[6],8.38
COc1cc(NCCCCn2c(-c3ccc(F)cc3)c(-c3ccccc3)c(C(=O)Nc3ccccc3)c2C(C)C)c2ncccc2c1,pIC50,[8],5.85
NC[C@H]1O[C@H](O[C@H]2[C@H](OCCCCCCCCCCCCN3CCN(c4cc5c(cc4F)c(=O)c(C(=O)O)cn5C4CC4)CC3)[C@@H](O[C@@H]3O[C@H](CO)[C@@H](O)[C@H](N)[C@H]3O)[C@H](N)C[C@@H]2N)[C@H](N)[C@@H](O)[C@@H]1O,MIC,[9],4 µg/mL
C[C@H]1[C@H](OC(=O)CCC(=O)OCCCNc2ncnc3c(C#N)c(-c4ccc(C(F)(F)F)cc4)cc(-c4ccc(C(F)(F)F)cc4)c23)O[C@@H]2O[C@]3(C)CC[C@H]4[C@H](C)CC[C@@H]1[C@@]24OO3,pEC50,[10],7.00
COc1cc(Cc2cnc(N)nc2N)cc(OC)c1OCCN1CCN(c2cc3c(cc2F)c(=O)c(C(=O)O)cn3C2CC2)CC1,MIC,[1],1 µg/mL
same,MIC,[11],0.5 µg/mL
NCCCCC(N)C(=O)N(CCCCCCCCCCCCO[C@@H]1[C@@H](O[C@@H]2O[C@H](CO)[C@@H](O)[C@H](N)[C@H]2O)[C@H](N)C[C@H](N)[C@H]1O[C@H]1O[C@H](CN)[C@@H](O)[C@H](O)[C@H]1N)Cc1c2ccccc2c(Cl)c2ccccc12 (stereo not given in full),MIC,[12],8 µg/mL
O=C(O)C1=C(CSc2cccc[n+]2[O-])CS[C@@H]2[C@H](NC(=O)[C@H](O)c3ccccc3)C(=O)N12,MIC,[13],0.5 µg/mL
same,MIC,[14],0.5 µg/mL
same,MIC,[15],0.5 µg/mL
same,MIC,[16],0.5 µg/mL
same,MIC,[17],0.5 µg/mL
same,MIC,[18],0.5 µg/mL
same,MIC,[19],0.5 µg/mL
same,MIC,[20],0.5 µg/mL
same,MIC,[21],0.5 µg/mL
same,MIC,[22],0.5 µg/mL
C[C@H]1[C@@H](CCS(=O)(=O)CC[C@H]2O[C@@H]3O[C@]4(C)CC[C@H]5[C@H](C)CC[C@@H]([C@H]2C)[C@@]35OO4)O[C@@H]2O[C@]3(C)CC[C@H]4[C@H](C)CC[C@@H]1[C@@]24OO3,pEC50,[23],7.60
